We go through 1 compound from US20090156594A1, “HETEROCYCLIC KINASE MODULATORS” (SGX Pharmaceuticals, Inc., priority 2007, published 2009).

For one experiment, the system named is GTL16 cells. Briefly: 96-well XTT cell survival assay (GTL16 cells). The format is cell-based. Particulars: Homo sapiens, GTL 16, 72 hours. The procedure:
GTL16 cells were maintained in DMEM Medium supplemented with 10% fetal bovine serum (FBS) 2 mM L-Glutamine and 100 units penicillin/100 μg streptomycin, at 37° C. in 5% CO2.
Compounds were Tested in the Following Assays in Duplicate.
96-well XTT assay (GTL16 cells): One day prior to assay the growth media was aspirated off and assay media was added to cells. On the day of the assay, the cells were grown in assay media containing various concentrations of compounds (duplicates) on a 96-well flat bottom plate for 72 hours at 37° C. in 5% CO2. The starting cell number was 5000 cells per well and volume was 120 μl. At the end of the 72-hour incubation, 40 μl of XTT labeling mixture (50:1 solution of sodium 3′-[1-(phenylaminocarbonyl)-3,4-tetrazolium]-bis(4-methoxy-6-nitro) benzene sulfonic acid hydrate and Electron-coupling reagent: PMS (N-methyl dibenzopyrazine methyl sulfate) were added to each well of the plate. After an additional 5 hours of incubation at 37° C., the absorbance reading at 450 nm with a background correction of 650 nm was measured with a spectrophotometer.
For orientation: Tetrazolium assays rely on reduction of a dye to a coloured formazan, in cell work by metabolically active cells.

A further experiment addresses T1, c-MET (Homo sapiens, UniProt P08581).
T1 construct: expressing the kinase domain of human Met; 6x Histidine tag (TEV-cleavable) (cleaved yes); made in house; host or cells: Sf9 insect cells
Nature of the experiment: MET luminescence-based enzyme assay (Kinase-Glo). The format is biochemical. Particulars: MET kinase domain, 10 μM ATP, 60 min at 21° C. The procedure: Screening data was evaluated using the equation: Z′=1-[3*(σ++σ−)/|μ+−μ−|] […] The subscript designates positive or negative controls. The Z′ score for a robust screening assay should be ≧0.50. The typical threshold=μ+−3*σ+. Any value that falls below the threshold was designated a “hit”.
MET Luminescence-Based Enzyme Assay
MET kinase (see below), Kinase-Glom (Promega Cat#V6712).
(diluted 50 μl into total of 10 ml miliQH2O daily=50 μM ATP working stock); 1% BSA (1 g BSA in 100 ml 0.1M HEPES, pH 7.5, stored at −20° C.), 100 mM MgCl2; 200 μM Staurosporine, 2× Kinase-Glo™ reagent (made fresh or stored at −20° C.).
Standard Assay Setup for 384-well format (20 μl kinase reaction, 40 μl detection reaction): 10 mM MgCl2; 0.3 mg/mil poly Glu-Tyr; 0.1% BSA; 1 μl test compound (in DMSO); 0.4 μg/ml MET kinase; 10 μM ATP; 100 mM HEPES buffer. Positive controls contained DMSO with no test compound. Negative controls contained […] staurosporine. The kinase reactions were initiated at time t=0 by the addition of ATP. Kinase reactions were incubated at 21° C. for 60 min, then 20 μl of Kinase-Glo™ reagent were added to each well to quench the kinase reaction and initiate the luminescence reaction. After a 20 min incubation at 21° C., the luminescence was detected in a plate-reading luminometer.
The cell pellets produced from half of a 12 L Sf9 insect cell culture expressing the kinase domain of human Met were resuspended in a buffer containing 50 mM Tris-HCl pH 7.7 and 250 mM NaCl, in a volume of approximately 40 ml per 1 L of original culture. […] The suspension was stirred for 1 hour at 4° C. Debris was removed by centrifugation for 30 minutes at 39,800×g at 4° C. […] The sample was then poured into a drip column at 4° C. and washed with 10 column volumes of 50 mM Tris-HCl pH 7.8, 500 mM NaCl, 10% Glycerol, […], and 10 mM Methionine. The protein was eluted using a step gradient with two column volumes each of the same buffer containing 50 mM, 200 mM, and 500 mM Imidazole, sequentially. […] The step gradient was run with 15% and then 80% of the B-side (A-side=50 mM Tris-HCl pH 7.8, 500 mM NaCl, 10% Glycerol, 10 mM Imidazole, and 10 mM Methionine; B-side=50 mM Tris-HCl pH 7.8, […], 10% Glycerol, 500 mM Imidazole, and 10 mM Methionine) for 4 column volumes each.
Background: Kinase-Glo measures the ATP left after a reaction by luminescence.

T1 sequence (P08581 1078-1345 limits assumed): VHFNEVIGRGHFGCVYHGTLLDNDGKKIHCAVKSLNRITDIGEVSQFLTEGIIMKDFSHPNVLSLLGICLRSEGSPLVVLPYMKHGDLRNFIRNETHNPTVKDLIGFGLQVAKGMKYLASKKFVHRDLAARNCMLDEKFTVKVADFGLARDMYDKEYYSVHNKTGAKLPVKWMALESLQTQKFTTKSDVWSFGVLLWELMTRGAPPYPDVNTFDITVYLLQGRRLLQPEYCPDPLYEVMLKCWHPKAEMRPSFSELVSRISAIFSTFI

`c1cnc2ccc(Cc3nnc4sc(NC5CC5)nn34)cc2c1` [cyclopropyl-(3-quinolin-6-ylmethyl-[1,2,4]triazolo[3,4-b][1,3,4]thiadiazol-6-yl)-amine]: the IC50 (commonly the concentration at which inhibition is half-maximal) in the experiment on GTL16 cells is at most 0.1 µM; on c-MET it was below 0.1 µM.
